# Measurements: ChEMBL document CHEMBL1201862, “PubChem BioAssay data set” (2004)
# Activity calls are given as the source filed them.
# Experiments:
# [1] = biological target: T1, RNA-binding protein pos-1 (Caenorhabditis elegans, UniProt G5EF15); experiment: disruptors of C. elegans POS-1 RNA interaction – biochemical, fluorescence polarization, dose response (AID 1964);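 also: purified POS-1 fused to maltose binding protein made in E. coli; potency of compounds blocking POS-1 binding to fluorescent RNA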
# T1 sequence (G5EF15 whole entry): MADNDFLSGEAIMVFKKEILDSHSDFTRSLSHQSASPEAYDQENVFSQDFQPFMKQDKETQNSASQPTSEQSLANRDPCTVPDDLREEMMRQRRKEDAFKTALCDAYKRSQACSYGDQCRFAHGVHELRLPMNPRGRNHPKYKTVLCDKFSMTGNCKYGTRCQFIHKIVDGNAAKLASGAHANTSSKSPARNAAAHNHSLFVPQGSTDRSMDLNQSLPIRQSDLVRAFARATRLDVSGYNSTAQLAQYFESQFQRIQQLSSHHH
# [2] = biological target: T2, Zinc finger protein mex-5 (Caenorhabditis elegans, UniProt Q9XUB2); experiment: potency of MEX-5 RNA-binding blockers – biochemical, C. elegans, fluorescence polarization, dose response (AID 1960)
# T2 sequence (Q9XUB2 whole entry): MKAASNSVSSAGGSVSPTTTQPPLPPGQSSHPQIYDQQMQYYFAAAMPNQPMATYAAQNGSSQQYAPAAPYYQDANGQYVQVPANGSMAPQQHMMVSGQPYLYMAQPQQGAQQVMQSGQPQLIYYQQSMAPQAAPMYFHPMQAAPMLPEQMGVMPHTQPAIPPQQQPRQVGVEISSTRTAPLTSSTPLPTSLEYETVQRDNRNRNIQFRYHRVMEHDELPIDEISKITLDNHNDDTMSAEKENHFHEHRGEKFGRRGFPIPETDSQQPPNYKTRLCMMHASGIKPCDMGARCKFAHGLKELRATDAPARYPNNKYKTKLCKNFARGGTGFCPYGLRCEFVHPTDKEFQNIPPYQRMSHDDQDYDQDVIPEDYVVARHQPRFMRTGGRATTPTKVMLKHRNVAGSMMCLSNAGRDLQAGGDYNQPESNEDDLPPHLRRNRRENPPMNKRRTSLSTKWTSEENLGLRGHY
# [3] = biological target: T3, Protein skinhead-1 (Caenorhabditis elegans, UniProt P34707); format: functional
# T3 sequence (P34707 whole entry): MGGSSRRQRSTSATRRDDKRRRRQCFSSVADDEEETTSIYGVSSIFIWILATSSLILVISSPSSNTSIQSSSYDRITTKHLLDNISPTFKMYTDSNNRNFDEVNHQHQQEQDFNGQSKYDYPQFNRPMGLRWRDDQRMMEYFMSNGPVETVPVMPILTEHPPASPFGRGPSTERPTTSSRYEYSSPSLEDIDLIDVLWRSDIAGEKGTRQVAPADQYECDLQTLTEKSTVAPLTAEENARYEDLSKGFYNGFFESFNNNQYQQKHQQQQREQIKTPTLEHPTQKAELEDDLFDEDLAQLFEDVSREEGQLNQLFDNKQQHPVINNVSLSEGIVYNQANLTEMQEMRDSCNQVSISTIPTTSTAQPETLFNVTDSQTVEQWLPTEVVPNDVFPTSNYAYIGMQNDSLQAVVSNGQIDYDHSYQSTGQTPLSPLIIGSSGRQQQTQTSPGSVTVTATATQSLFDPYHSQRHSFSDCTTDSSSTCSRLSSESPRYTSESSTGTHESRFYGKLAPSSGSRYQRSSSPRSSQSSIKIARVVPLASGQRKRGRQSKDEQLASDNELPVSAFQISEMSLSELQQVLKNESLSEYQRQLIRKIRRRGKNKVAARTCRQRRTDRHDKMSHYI
# [4] = biological target: T4, Polyadenylate-binding protein 1 (Homo sapiens, UniProt P11940); experiment: MLLE domain peptide-binding blockers, IC50 – biochemical, fluorescence polarization, FITC-PAM2 peptide, dose response (AID 602259); format: functional; conditions: read-out: IC50_Mean
# T4 sequence (P11940 whole entry, the tested form may be a part): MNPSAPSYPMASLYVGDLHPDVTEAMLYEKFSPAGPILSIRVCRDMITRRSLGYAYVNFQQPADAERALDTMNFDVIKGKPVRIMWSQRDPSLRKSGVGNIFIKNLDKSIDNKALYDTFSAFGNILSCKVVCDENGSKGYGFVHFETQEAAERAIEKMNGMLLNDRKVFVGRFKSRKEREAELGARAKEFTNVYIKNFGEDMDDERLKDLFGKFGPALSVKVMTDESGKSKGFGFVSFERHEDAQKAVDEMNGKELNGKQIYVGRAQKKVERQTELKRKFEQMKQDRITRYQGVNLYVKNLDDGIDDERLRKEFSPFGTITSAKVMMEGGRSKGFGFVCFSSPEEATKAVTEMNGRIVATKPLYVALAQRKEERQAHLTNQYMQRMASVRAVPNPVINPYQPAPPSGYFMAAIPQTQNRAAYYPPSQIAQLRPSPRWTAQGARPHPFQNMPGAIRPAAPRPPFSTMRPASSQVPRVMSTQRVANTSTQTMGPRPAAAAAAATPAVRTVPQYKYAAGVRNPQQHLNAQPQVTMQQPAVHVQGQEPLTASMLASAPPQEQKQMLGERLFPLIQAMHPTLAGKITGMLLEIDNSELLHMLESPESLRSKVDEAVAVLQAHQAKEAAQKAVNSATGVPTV
# [5] = biological target: T4, Polyadenylate-binding protein 1; experiment: MLLE binding blockers, Cy5 peptide tracer – biochemical, fluorescence polarization, Cy5-PAM2 peptide, secondary, miRNA deadenylation inhibitor project, dose response (AID 602260); format: functional; conditions: read-out: IC50_Mean
# [6] = biological target: T5, Corticotropin-releasing factor receptor 2/Corticotropin-releasing factor-binding protein (Homo sapiens, UniProt P24387+Q13324); experiment: activators of CRF receptor 2 with binding protein – uHTS hits, confirmation (AID 602473); format: functional; conditions: read-out: EC50_Mean
# T5 sequence (Q13324 whole entry): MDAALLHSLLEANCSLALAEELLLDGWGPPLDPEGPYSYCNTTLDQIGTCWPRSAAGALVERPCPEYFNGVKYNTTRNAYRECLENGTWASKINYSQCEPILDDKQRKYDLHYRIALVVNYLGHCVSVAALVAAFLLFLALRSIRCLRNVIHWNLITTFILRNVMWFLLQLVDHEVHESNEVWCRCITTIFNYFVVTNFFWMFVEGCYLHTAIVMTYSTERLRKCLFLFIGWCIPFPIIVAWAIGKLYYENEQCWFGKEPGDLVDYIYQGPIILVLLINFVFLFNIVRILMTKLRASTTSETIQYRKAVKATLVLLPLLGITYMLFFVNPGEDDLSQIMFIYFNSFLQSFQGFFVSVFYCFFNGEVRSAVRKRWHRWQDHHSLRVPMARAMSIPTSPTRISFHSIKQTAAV
# T5 sequence (P24387 whole entry): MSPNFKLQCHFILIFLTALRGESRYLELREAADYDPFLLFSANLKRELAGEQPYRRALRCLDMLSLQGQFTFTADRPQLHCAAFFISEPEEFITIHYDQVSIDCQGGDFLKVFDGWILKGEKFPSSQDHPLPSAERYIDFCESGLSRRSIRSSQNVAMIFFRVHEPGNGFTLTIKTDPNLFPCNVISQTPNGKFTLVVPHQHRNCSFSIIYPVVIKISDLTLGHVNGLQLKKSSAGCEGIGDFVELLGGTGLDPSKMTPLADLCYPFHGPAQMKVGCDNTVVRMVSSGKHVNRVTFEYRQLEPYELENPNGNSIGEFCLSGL
# [7] = biological target: Heat shock protein HSP 90-alpha (Homo sapiens, UniProt P07900); format: functional, organism-based
# [8] = biological target: T5, Corticotropin-releasing factor receptor 2/Corticotropin-releasing factor-binding protein; experiment: Dose Response confirmation of uHTS hits for small molecule antagonists of the CRF-binding protein and CRF-R2 receptor complex.; format: functional; conditions: read-out: IC50_Mean
# [9] = tested on: Streptococcus; experiment: GAS UMAA2166 growth inhibition – luminescence, BacTiterGlo, counter-screen for streptokinase expression inhibitor project, dose response (AID 1915); format: functional, organism-based;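 also: potency for reduction of bacterial viability or growth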
# [10] = viability of PTEN-deleted HCT116 cells – cell-based, HCT116 PTEN knockout, dose response (AID 1047); format: functional;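 also: HCT116 colon tumor cells with PTEN knocked out; cells exposed to compound for 60 hours before readout; potency for loss of cell viability measured by luminescence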
# [11] = viability of HCT116 lacking mutant beta-catenin – cell-based, human colon tumor, dose response (AID 1045); format: functional;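 also: HCT116 colon tumor cells with beta catenin knocked out; cells exposed to compound for 60 hours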
# [12] = biological target: T6, Streptokinase A (Streptococcus pyogenes serotype M1, UniProt P10520); experiment: viability-normalized secreted streptokinase activity reduction – plasminogen activation absorbance, OD405, dose response (AID 1914); format: functional, Streptococcus pyogenes M1 GAS;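 also: secreted streptokinase activity via plasminogen activation per viability signal from cell pellet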
# T6 sequence (P10520 whole entry): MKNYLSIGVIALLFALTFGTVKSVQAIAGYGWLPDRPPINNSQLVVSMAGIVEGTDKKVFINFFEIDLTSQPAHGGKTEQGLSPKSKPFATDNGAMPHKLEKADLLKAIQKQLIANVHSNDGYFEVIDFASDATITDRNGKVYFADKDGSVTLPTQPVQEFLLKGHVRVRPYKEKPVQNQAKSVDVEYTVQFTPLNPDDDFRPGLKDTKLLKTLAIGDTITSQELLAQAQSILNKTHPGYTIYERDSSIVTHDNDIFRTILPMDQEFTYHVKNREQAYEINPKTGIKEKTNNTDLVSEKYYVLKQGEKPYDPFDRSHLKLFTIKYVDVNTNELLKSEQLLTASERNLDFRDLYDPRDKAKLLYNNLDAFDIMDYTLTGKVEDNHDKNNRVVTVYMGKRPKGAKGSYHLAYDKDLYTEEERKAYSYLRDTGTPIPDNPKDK
# [13] = tested on: Streptococcus sp. 'group A'; experiment: Streptococcus pyogenes SK(-)GAS viability under kanamycin – luminescence, BacTiterGlo, confirmation, counter-screen for streptokinase expression inhibitor project, dose response (AID 1900); format: functional, organism-based
# [14] = biological target: Paired box protein Pax-8 (Homo sapiens, UniProt Q06710); experiment: PAX8 transcriptional activity inhibition in RMG-I – RMG-I cells, luciferase, cherry-pick, dose response (AID 687027); format: functional, cell-based;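 also: luciferase reporter driven by Pax8 target thyroperoxidase promoter measured by SteadyGlo luminescence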
# Sequence of Paired box protein Pax-8 (Q06710 whole entry): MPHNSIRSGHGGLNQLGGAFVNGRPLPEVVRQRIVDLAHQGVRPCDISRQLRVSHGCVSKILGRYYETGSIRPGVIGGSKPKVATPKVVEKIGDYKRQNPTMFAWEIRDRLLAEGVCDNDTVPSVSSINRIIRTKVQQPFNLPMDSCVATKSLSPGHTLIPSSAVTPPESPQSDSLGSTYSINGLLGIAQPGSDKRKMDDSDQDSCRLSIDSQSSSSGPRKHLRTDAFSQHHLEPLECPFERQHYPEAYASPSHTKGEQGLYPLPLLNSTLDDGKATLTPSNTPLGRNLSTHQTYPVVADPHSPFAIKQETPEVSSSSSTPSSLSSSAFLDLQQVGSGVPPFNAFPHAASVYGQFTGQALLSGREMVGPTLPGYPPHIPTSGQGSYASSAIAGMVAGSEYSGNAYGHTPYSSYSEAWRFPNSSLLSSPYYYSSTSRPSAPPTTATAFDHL
# [15] = biological target: Nonstructural protein 1 (Influenza A virus, UniProt Q194T2); format: functional, Influenza A virus (A/California/07/2009(H1N1))
# Sequence of Nonstructural protein 1 (Q194T2 whole entry): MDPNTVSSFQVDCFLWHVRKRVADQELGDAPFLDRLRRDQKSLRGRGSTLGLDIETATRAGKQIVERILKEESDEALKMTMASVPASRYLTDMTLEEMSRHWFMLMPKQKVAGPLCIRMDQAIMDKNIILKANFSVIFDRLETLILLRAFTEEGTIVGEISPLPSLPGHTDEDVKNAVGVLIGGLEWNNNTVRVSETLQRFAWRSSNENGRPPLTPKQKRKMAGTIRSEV
# [16] = viability of uninfected HEp-2 cells – cell-based, HTS, cytotoxicity control for RSV inhibitor project, dose response (AID 2410); format: functional; conditions: human respiratory syncytial virus
smiles,measurement,setting,value
COc1cccc(OCCn2cc(C=O)c3ccccc32)c1,EC50,[1],> 300 µM (not active)
same,EC50,[2],> 300 µM (not active)
Cc1cc(NC(=O)CSc2nnc(-c3ccncc3)n2-c2ccc(F)cc2)no1,IC50,[3],> 100 µM (inactive)
O=C(COC(=O)CCNS(=O)(=O)c1ccccc1)Nc1ccc(OC(F)F)cc1,IC50,[3],> 100 µM (inactive)
COC(=O)c1ccc(-n2c(C)cc(/C=N/Nc3nc(C)cc(O)n3)c2C)cc1,EC50,[1],> 300 µM (not active)
same,EC50,[2],> 300 µM (not active)
O=C(NC1CCCCCC1)C(=S)NCCc1ccccc1,IC50,[4],> 66 µM (inactive)
same,IC50,[5],> 66 µM (inactive)
CCOC(=O)c1sc(-c2ccc(C(F)(F)F)cc2)nc1O,EC50,[6],11.9 µM (active)
same,AC50,[7],3.14 µM (active)
same,IC50,[8],> 47.1 µM (inactive)
O=C(N/N=C/c1c[nH]c2ccccc12)c1[nH]c2ccc(Br)cc2c1-c1ccccc1,EC50,[9],2.22 µM (active)
same,EC50,[10],0.412 µM (active)
same,EC50,[11],0.378 µM (active)
same,EC50,[12],> 150 µM (not active)
same,EC50,[13],1.29 µM (active)
same,AC50,[14],3.5 µM (active)
CCCCn1c(NC(=S)Nc2ccccc2)nc2ccccc21,IC50,[4],> 66 µM (inactive)
same,IC50,[5],> 66 µM (inactive)
COc1cccc(CNC(=O)CSc2ccc(-c3ccccn3)nn2)c1,IC50,[15],20.6 µM (active)
Oc1ccc(-c2c(-c3ccsc3)sc3ccccc23)cc1,AC50,[7],3.3 µM (active)
COCCN1CCC(CNCc2c[nH]nc2-c2ccc(C)c(C)c2)C1 (stereo unspecified),EC50,[1],> 300 µM (not active)
same,EC50,[2],> 300 µM (inconclusive)
O=C(NC(=S)Nc1ccc(CN2CCCCC2)cc1)c1ccco1,IC50,[4],> 66 µM (inactive)
same,IC50,[5],> 66 µM (inactive)
O=C(NCc1ccncc1)C(=O)N/N=C/c1ccccn1,EC50,[1],86.1 µM (active)
same,EC50,[2],24.2 µM (active)
CCc1ccc(-c2nc(CSCC(=O)N3CCN(c4ncccn4)CC3)c(C)o2)cc1,EC50,[10],53.6 µM (active)
same,EC50,[11],29.8 µM (active)
Cc1c(N=NC2=C(O)CCCC2=O)c(=O)n(-c2ccccc2)n1C,IC50,[15],2.9 µM (active)
CCCOc1ccc(N2C(=O)CC(N(CCc3ccc(OC)cc3)C(=O)c3cccc(F)c3)C2=O)cc1 (stereo unspecified),IC50,[3],> 100 µM (inactive)
Clc1cccc(CSc2ccc(-c3ccco3)nn2)c1,CC50,[16],> 50 µM (active)
same,IC50,[3],99.9 µM (inactive)
Cc1cc(C2=NN=C(NC3CC3)SC2)c(C)n1-c1ccccc1,EC50,[10],23.7 µM (active)
same,EC50,[11],19.5 µM (active)
COc1ccc2cc3cc(C(=O)N4CCN(Cc5ccc6c(c5)OCO6)CC4)oc3nc2c1,IC50,[15],> 100 µM (active)
COc1cc([C@H](Cc2ccccc2)NC(C)=O)oc(=O)c1,EC50,[1],38.7 µM (active)
same,EC50,[2],27.9 µM (active)
CCOc1ccccc1NC(=O)Cn1c(=O)oc2cc(Cl)ccc21,IC50,[3],> 100 µM (inactive)
COc1ccc(N2CCN(c3c(S(=O)(=O)c4ccccc4)cnc4ccc(OC)cc34)CC2)cc1,AC50,[7],2.76 µM (active)
COc1ccc(S(=O)(=O)NCc2ccc3c(c2)cc(C)n3C)cc1,IC50,[4],> 66 µM (inactive)
same,IC50,[5],> 66 µM (inactive)
same,IC50,[15],66.3 µM (active)
CCOC(=O)c1c(NC(=O)C2CCCN(S(=O)(=O)c3ccccc3)C2)sc2c1CCCC2 (stereo unspecified),EC50,[10],50.9 µM (active)
same,EC50,[11],73.3 µM (active)
CCOC(=O)c1ccccc1N1C(=O)CSC1=S,IC50,[4],> 66 µM (inactive)
same,IC50,[5],> 66 µM (inactive)
O=S(=O)(/C=C/c1ccccc1)NC1CCCCCCC1,AC50,[7],24.7 µM (active)
CCOc1ccc(-c2nnc(-c3ccccc3)o2)cc1,IC50,[3],> 100 µM (inactive)
COc1ccc(Cl)cc1NC(=O)CSc1ncnc2c1oc1ccccc12,EC50,[10],4.25 µM (active)
same,EC50,[11],6.22 µM (active)
O=C1N=C(N2CCCCC2)S/C1=C/C1=Cc2ccccc2OC1,EC50,[1],> 300 µM (not active)
same,EC50,[2],> 300 µM (not active)
Cc1nn(-c2ccccc2)c(N2CCCC2)c1/C=N/Nc1ccc(S(=O)(=O)Nc2ccccc2)cc1[N+](=O)[O-],EC50,[10],6.74 µM (active)
same,EC50,[11],9.37 µM (active)
Fc1ccc(CSc2ncnc3ccccc23)cc1,IC50,[3],31.8 µM (active)
c1csc(C2Nc3cccc4cccc(c34)N2)c1,IC50,[4],> 66 µM (inactive)
same,IC50,[5],> 66 µM (inactive)
CC1CCc2cc(F)ccc2N1C(=O)CSc1n[nH]c2c3ccccc3nc-2n1 (stereo unspecified),EC50,[10],19 µM (active)
same,EC50,[11],22.5 µM (active)
O=[N+]([O-])c1ccc(N/N=C2\CC3CC=CC23)c([N+](=O)[O-])c1 (stereo unspecified),IC50,[15],35.3 µM (active)
CCOc1ccc(-n2cc(-c3ccccc3)c3c(=S)[nH]cnc32)cc1,IC50,[4],> 66 µM (inactive)
same,IC50,[5],> 66 µM (inactive)
same,EC50,[12],> 150 µM (not active)
CN(CC(=O)NCc1ccccn1)S(=O)(=O)c1ccc(Br)cc1,EC50,[1],> 300 µM (not active)
same,EC50,[2],> 300 µM (not active)
